Measurements: publication PMC8187479, “Sugar phosphate activation of the stress sensor eIF2B” (Nature Communications, 2021)

Target: T1, eIF2Bα (Homo sapiens, UniProt Q14232)
T1 construct: made in house; host or cells: E. coli BL21(DE3)
T1 sequence (Q14232 1-305): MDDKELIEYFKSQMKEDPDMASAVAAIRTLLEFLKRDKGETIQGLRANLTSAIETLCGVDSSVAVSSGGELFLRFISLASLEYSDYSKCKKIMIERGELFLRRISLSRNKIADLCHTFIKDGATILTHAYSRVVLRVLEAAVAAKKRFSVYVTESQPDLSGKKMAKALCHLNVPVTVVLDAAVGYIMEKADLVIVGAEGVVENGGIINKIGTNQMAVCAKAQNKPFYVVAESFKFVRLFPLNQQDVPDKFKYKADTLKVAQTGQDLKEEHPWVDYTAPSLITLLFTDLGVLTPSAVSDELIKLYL
Assay: MIDAS (mass spectrometry integrated with equilibrium dialysis) metabolite binding screen
Conditions: not given
Summary of the method: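 Hits called at Storey q < 0.1 on z-scores of PCA-corrected log2 fold change between protein and metabolite chambers, quantified by FIA-MS in triplicate.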

log2(corrected fold change) | Compound
0.07073 | Orotidine 5-monophosphate

Same assay, conditions: MIDAS metabolite binding screen with eIF2Bα; sheet "eIF2Ba"

Compound | log2(corrected fold change)
Cc1ncc(COP(=O)(O)O)c(C=O)c1O [Pyridoxal 5-phosphate] | 0.1983
Cc1ncc(CO)c(C=O)c1O [Pyridoxal] | 0.1009
Cc1ncc(COP(=O)(O)O)c(CN)c1O [Pyridoxamine-5-phosphate] | -0.03281
C[S+](CC[C@H](N)C(=O)O)C[C@H]1O[C@@H](n2cnc3c(N)ncnc32)[C@H](O)[C@@H]1O (stereo partly drawn) [S-(5-Adenosyl)-L-methionine] | 0.006892
O=C(O)[C@@H]1C[C@@H](O)CN1 [Trans-4-Hydroxy-L-proline] | 0.008003
O=C(O)c1cc(O)c2cccc(O)c2n1 [Xanthurenic acid] | -0.07533
O=C(O)/C=C(/CC(=O)O)C(=O)O [cis-Aconitic acid] | 0.003317

Further lines, results first:

log2(corrected fold change) | Compound
0.0724 | Cc1ncc(CO)c(CN)c1O [Pyridoxamine]
0.06004 | Cc1cc2nc3c(=O)[nH]c(=O)nc-3n(C[C@H](O)[C@H](O)[C@H](O)COP(=O)(O)O)c2cc1C [Riboflavin 5-monophosphate]
-0.04124 | C[C@@H](O)C(=O)SC[C@H](NC(=O)CC[C@H](N)C(=O)O)C(=O)NCC(=O)O [S-Lactoylglutathione]
-0.05121 | O=C(O)CCC(=O)O [Succinic acid]
-0.01154 | NCCS(=O)(=O)O [Taurine]
-0.008195 | Cc1ncc(C[n+]2csc(CCO[P@](=O)(O)OP(=O)(O)O)c2C)c(N)n1 [Thiamine pyrophosphate]
0.0196 | Cc1ncc(C[n+]2csc(CCO)c2C)c(N)n1 [Thiamine]
-0.007923 | Cc1cn([C@H]2C[C@H](O)[C@@H](COP(=O)(O)O)O2)c(=O)[nH]c1=O [Thymidine monophosphate]
-0.0409 | CC(=O)N[C@H]1[C@@H](OP(=O)(O)OP(=O)(O)OC[C@H]2O[C@@H](n3ccc(=O)[nH]c3=O)[C@H](O)[C@@H]2O)O[C@H](CO)[C@@H](O)[C@@H]1O [UDP-GlcNAc]
-0.0457 | O=c1ccn([C@@H]2O[C@H](COP(=O)(O)OP(=O)(O)OP(=O)(O)O)[C@@H](O)[C@H]2O)c(=O)[nH]1 [Uridine 5-triphosphate]
0.009821 | O=c1ccn([C@@H]2O[C@H](CO)[C@@H](O)[C@H]2O)c(=O)[nH]1 [Uridine]
0.0001312 | OC[C@H]1O[C@@H](n2cnc3c(O)nc(O)nc32)[C@H](O)[C@@H]1O [Xanthosine]
-0.07333 | CCC(C)C(=O)NCC(=O)O (stereo not shown) [a-Methylbutyrylglycine]
-0.02264 | Stachyose

Same assay, conditions: MIDAS screen, sheet eIF2Ba; metabolites screened in pools 1-4; p-value and q-value given

Compound | log2(corrected fold change)
CCC(=O)NCC(=O)O [Propionylglycine] | 0.07527
CCCCC[C@H](O)/C=C/[C@H]1C(=O)C[C@H](O)[C@@H]1C/C=C\CCCC(=O)O [Prostaglandin D2] | 0.05625
CCCCC[C@H](O)/C=C/[C@H]1[C@H](O)CC(=O)[C@@H]1C/C=C\CCCC(=O)O [Prostaglandin E2] | 0.05625
CCCCC[C@H](O)/C=C/[C@@H]1[C@H]2C/C(=C/CCCC(=O)O)O[C@H]2C[C@H]1O [Prostaglandin I2] | 0.05625
O=c1[nH]c(=O)c2ncn([C@@H]3O[C@H](COP(=O)(O)O)[C@@H](O)[C@H]3O)c2[nH]1 [Xanthosine 5-monophosphate] | -0.169
Benzoate | 0.4135
Cytidine monophosphate | 1.354
D-Glucose 6-phosphate | -0.1344
PIP2 | 0.1728
PIP3 | 0.2943
Phosphatidic Acid | 0.1983
Phosphatidylcholine | -0.03855
Phosphatidylethanolamine | 0.09167
Phosphatidylglycerol | 0.1451
Phosphatidylserine | 0.1166

Continued, values first:

log2(corrected fold change) | Compound
-0.04546 | Cc1ncc(CO)c(CO)c1O [Pyridoxine]
0.3728 | Cc1cc2nc3c(=O)[nH]c(=O)nc-3n(C[C@H](O)[C@H](O)[C@H](O)CO)c2cc1C [Riboflavin]
-0.01949 | Nc1ncnc2c1ncn2[C@@H]1O[C@H](CSCC[C@H](N)C(=O)O)[C@@H](O)[C@H]1O [S-(5-Adenosyl)-L-homocysteine]
-0.1398 | CNCC(=O)O [Sarcosine]
0.1384 | CC(C)(COP(=O)(O)OP(=O)(O)OC[C@H]1O[C@@H](n2cnc3c(N)ncnc32)[C@H](O)[C@@H]1OP(=O)(O)O)[C@H](O)C(=O)NCCC(=O)NCCSC(=O)CCC(=O)O [Succinyl coenzyme A]
-0.3372 | OC[C@H]1O[C@@](CO)(O[C@H]2O[C@H](CO)[C@@H](O)[C@H](O)[C@H]2O)[C@@H](O)[C@@H]1O [Sucrose]
0.1425 | Cc1ncc(C[n+]2csc(CCOP(=O)(O)O)c2C)c(N)n1 [Thiamine monophosphate]
0.01939 | Cc1cn([C@H]2C[C@H](O)[C@@H](COP(=O)(O)OP(=O)(O)OP(=O)(O)O)O2)c(=O)[nH]c1=O [Thymidine 5-triphosphate]
0.1162 | Cc1cn([C@H]2C[C@H](O)[C@@H](CO)O2)c(=O)[nH]c1=O [Thymidine]
-0.1153 | Cc1c[nH]c(=O)[nH]c1=O [Thymine]
0.04348 | O=C(O)C/C=C/CC(=O)O [Trans-beta-Hydromuconic acid]
0.3274 | NCCc1ccc(O)cc1 [Tyramine]
-0.09562 | O=C(O)[C@H]1O[C@H](OP(=O)(O)OP(=O)(O)OC[C@H]2O[C@@H](n3ccc(=O)[nH]c3=O)[C@H](O)[C@@H]2O)[C@H](O)[C@@H](O)[C@@H]1O [UDP-Glucuronate]
-0.07123 | O=c1cc[nH]c(=O)[nH]1 [Uracil]
-0.06736 | NC(N)=O [Urea]
-0.09817 | O=c1[nH]c(=O)c2[nH]c(=O)[nH]c2[nH]1 [Uric acid]
-0.03147 | O=c1ccn([C@@H]2O[C@H](COP(=O)(O)OP(=O)(O)O)[C@@H](O)[C@H]2O)c(=O)[nH]1 [Uridine 5-diphosphate]
-0.1163 | O=c1[nH]c(=O)c2nc[nH]c2[nH]1 [Xanthine]
-0.08707 | OC[C@@H](O)[C@H](O)[C@@H](O)CO [Xylitol]
-0.4569 | O=c1ccn([C@H]2C[C@H](O)[C@@H](COP(=O)(O)OP(=O)(O)OP(=O)(O)O)O2)c(=O)[nH]1 [dUTP]

Same assay, conditions: eIF2Bα2; 50 μM per metabolite pool; 40 h dialysis at 4 °C

MIDAS result (enrichment in the protein chamber / hit status) | Compound
significantly enriched | N[C@@H](Cc1ccc(O)c(I)c1)C(=O)O [iodotyrosine]
